Measured values from US20120059053A1, “COMPOUNDS OF 2,3-DIHYDRO-BENZOFURAN” (FERRER INTERNATIONAL, S.A., priority 2007, published 2012).

What was measured:
[1] = Levels in rat plasma after po administration; assay type: in vivo; conditions: 15 min after po administration of 1 mg/Kg
Brain/plasma ratio = conditions: in vivo
[2] = Metabolic stability by disappearance of compound on incubation in human microsomes; conditions: 120 min, 1 μM

| concentration at 15 min [1] | brain/plasma ratio (Brain/plasma ratio) | metabolic stability [2] | SMILES |
| --- | --- | --- | --- |
| 10.1 ng/mL | zero | less than 30% | CCC(=O)NCC[C@@H]1CCc2ccc(OC)cc21 [(1S)-N-[2-(6-methoxy-indan-1-yl)-ethyl]-propionamide] |
| 98 ng/mL | – | – | COc1ccc2c(c1)C(CCNC(C)=O)CO2 (stereo not shown) [Example 1, N-[2-(5-methoxy-2,3-dihydro-benzofuran-3-yl)-ethyl]-acetamide] |
